Each structure is given as a SMILES string. Numbers after ± are expanded uncertainties.

A word on the mass density: it is mass per unit of volume.

The conditions of the data set: 298.15 K; 101.33 kPa; Liquid.
Consider `CCCCCCn1cc[n+](C)c1.F[P-](F)(F)(F)(F)F` [1-hexyl-3-methylimidazolium hexafluorophosphate], for which the mass density turned out to be 1293.5 ± 7 kg/m3.

Take `CCCCCCn1cc[n+](C)c1.F[B-](F)(F)F` [1-hexyl-3-methylimidazolium tetrafluoroborate]: the mass density was 1148.1 ± 5 kg/m3.

On to `c1ccccc1` [benzene], for which the mass density came out at 873.2 ± 0.9 kg/m3.

On to `CCCCCCCCCCCC` [dodecane], for which the mass density amounted to 747 ± 4 kg/m3.

On to `CCCCCCC` [heptane], for which the mass density was found to be 690.6 ± 1.6 kg/m3.

`CCCCCCCCCCCCCCCC` [hexadecane]: the mass density is reported as 771.5 ± 1.4 kg/m3.

Values taken from the NIST ThermoML archive (doi:10.1016/j.jct.2004.05.001).
